Read-outs that look alike come from different tables or passages of the source. Positions of bridges follow the written chain, without caps; N, C: chain ends. Residues, ends and D or L forms follow the SMILES beside them. No end group written: not given here.

Type in all cases: cell-based
In experiment [1] the test system is human alveolar basal epithelial adenocarcinoma cells, A549. The conditions noted are these: for antitumor activity (tumor cell proliferation-inhibiting activity), in words: A549, 50 μM, 24 hours, summary of Table 5; for A450(-A620) After 24 hers: A549, peptide 50 μM, WST-8 absorbance after 24 hours. On the procedure: (§1) As the tumor cells tested, a commercial mouse neuroblastoma cell line (N1E-115) was used. The cell line was cultured beforehand in a DMEM medium (i.e. Dulbecco MEM medium (DMEM medium, a Gibco product) containing 10% fetal bovine serum (FBS, a Gibco product), 2 mM of L-glutamine, 50 unit/mL of penicillin, and 50 μg/mL of streptomycin), and the number of cells per well in a 96-well plate was adjusted to approximately 5×10^3. The volume of the medium for this was 100 μL per well.
(§2) Subsequently, the stock solution of each sample peptide shown in Table 3 was added to each well to a peptide concentration in the well of 50 μM or 100 μM.
(§3) After the sample peptides were added as described above, the 96-well plate was placed in a CO2 incubator and cultured without agitation at 37° C. under 5% CO2. At the time of the peptide addition (at the start of treatment) and at 6 hours or 24 hours from the peptide addition and the start of incubation, the viability status of the cultured cells tested was analyzed with a commercial colorimetric assay kit. In particular, to each cell-culturing well, “water-soluble tetrazolium salt (WST-8)” was added as a colorimetric reagent; after two hours of incubation following the addition, the cell culture medium supplied with the colorimetric reagent was collected; and the level of inhibition of cell proliferation was evaluated by colorimetry, measuring the absorbance at a wavelength of 450 nm (values corrected with the absorbance at a wavelength of 620 nm, A450-A620) based on reduction of tetrazolium salt. Based on the absorbance at the time of the sample peptide addition (at the start of treatment), the percent decrease in the absorbance after 6 hours or 24 hours was determined as the cell proliferation inhibition rate (%).
Cells forming a […] (human alveolar basal epithelial adenocarcinoma cells, A549) were substituted for the tumor cells tested and the same test as Example 2 described above was carried out. In the present example, the peptides of Samples 1 to 13, 15 to 22, 24, 29, 35 and 40 were used.
(Tetrazolium assays rely on reduction of a dye to a coloured formazan, in cell work by metabolically active cells.)

The next experiment has as its system HeLa cells (HeLa S3). As to conditions: WST-8 absorbance after 24 hours. On the procedure:
as §1, §2, §3
HeLa cells (HeLa S3) were substituted for the tumor cells tested and the same test as Example 2 described above was carried out. In the present example, the peptides of Samples 1 to 7, 9, 10, 13, 16, 21 and 35 were used.

In experiment [2] the test system is mouse neuroblastoma cell line (N1E-115). As to conditions: for antitumor activity (tumor cell proliferation-inhibiting activity), in words: N1E-115, 50 or 100 μM, summary of Table 3; for A450(-A620) After 24 hers: WST-8 absorbance after 24 hours. On the procedure:
Some of the sample peptides obtained in Example 1 were tested for antitumor activity against target cultured tumor cells. Details of the assay are as described below.
as §1, §2, §3

As for `CSCC[C@@H]1NC(=O)[C@H](CCCCN)NC(=O)[C@H]([C@@H](C)O)NC(=O)[C@H](CCC(N)=O)NC(=O)CNC(=O)[C@H](CC(C)C)NC(=O)[C@@H](N)CSSC[C@@H](C(=O)O)NC(=O)[C@H](CCCNC(=N)N)NC1=O` [Sample 3, CLGQTKMRC] (H-CLGQTKMRC-OH; disulfide 1-9; N-terminus and C-terminus assumed), the “antitumor activity (tumor cell proliferation-inhibiting activity), in words” value in experiment [1] was “high antitumor activity”. The “A450(-A620) After 24 hers” value in experiment [1] is listed as 1.7022; in the experiment on HeLa cells (HeLa S3) (HeLa S3, peptide 50 μM), 0.1194; in the experiment on HeLa cells (HeLa S3) (HeLa S3, peptide 100 μM) it was 0.0997.
Consider `CC[C@H](C)[C@@H]1NC(=O)[C@H](Cc2c[nH]cn2)NC(=O)[C@@H](N)CSSC[C@@H](C(=O)O)NC(=O)[C@H](C)NC(=O)[C@H](CCC(N)=O)NC(=O)[C@H](C)NC(=O)[C@H](Cc2c[nH]cn2)NC(=O)[C@H](CC(C)C)NC1=O` [Sample 8, CHILHAQAC] (H-CHILHAQAC-OH; disulfide 1-9; N-terminus and C-terminus assumed), for which the “A450(-A620) After 24 hers” value in experiment [1] turned out to be 1.7885.
For `CSCC[C@@H]1NC(=O)[C@@H]2CCCN2C(=O)[C@H](CCCNC(=N)N)NC(=O)[C@H](CCCCN)NC(=O)[C@H](CCC(=O)O)NC(=O)[C@H](Cc2ccc(O)cc2)NC(=O)[C@H](CO)NC(=O)[C@@H](N)CSSC[C@@H](C(=O)O)NC1=O` [Sample 11, CSYEKRPMC] (H-CSYEKRPMC-OH; disulfide 1-9; N-terminus and C-terminus assumed), in experiment [1], the “antitumor activity (tumor cell proliferation-inhibiting activity), in words” value is on record as “high antitumor activity” and the “A450(-A620) After 24 hers” value is 1.6741.
`CC(C)C[C@@H]1NC(=O)[C@@H](N)CSSC[C@@H](C(=O)O)NC(=O)[C@H](CO)NC(=O)[C@H]([C@@H](C)O)NC(=O)[C@H](Cc2ccc(O)cc2)NC(=O)[C@H](CO)NC(=O)[C@H](CCCCN)NC(=O)[C@H]([C@@H](C)O)NC1=O` [Sample 12, CLTKSYTSC] (H-CLTKSYTSC-OH; disulfide 1-9; N-terminus and C-terminus assumed): the “A450(-A620) After 24 hers” value in experiment [1] amounted to 1.9165.
Turning to `CC(C)C[C@H](NC(=O)[C@@H](NC(=O)[C@H](CCCNC(=N)N)NC(=O)[C@H](CCCCN)NC(=O)[C@H](CCCCN)NC(=O)[C@@H]1CSSC[C@H](N)C(=O)N[C@@H](CO)C(=O)N[C@@H](CO)C(=O)N[C@@H](C)C(=O)N[C@@H]([C@@H](C)O)C(=O)NCC(=O)N[C@@H](CCCCN)C(=O)N[C@@H](CO)C(=O)N1)[C@@H](C)O)C(=O)N[C@@H](CCCNC(=N)N)C(=O)N[C@@H](CCCCN)C(=O)N[C@@H](CC(N)=O)C(=O)N[C@@H](CC(=O)O)C(=O)N[C@@H](CCCNC(=N)N)C(=O)N[C@@H](CCCCN)C(=O)N[C@@H](CCCCN)C(=O)N[C@@H](CCCNC(=N)N)C(=O)O` [Sample 23] (H-CSSATGKSCKKRTLRKNDRKKR-OH; disulfide 1-9; N-terminus and C-terminus assumed), the “antitumor activity (tumor cell proliferation-inhibiting activity), in words” value in experiment [2] is given as “high antitumor activity”. Moreover, the “A450(-A620) After 24 hers” value was 0.4127 in experiment [2] (N1E-115, peptide 50 μM) and 0.3841 in experiment [2] (N1E-115, peptide 100 μM).
As for `CC(C)C[C@H](NC(=O)[C@@H](NC(=O)[C@H](CCCNC(=N)N)NC(=O)[C@H](CCCCN)NC(=O)[C@H](CCCCN)NC(=O)[C@@H]1CSSC[C@H](N)C(=O)N[C@@H](CC(C)C)C(=O)N[C@@H](C)C(=O)N2CCC[C@H]2C(=O)N[C@@H](CO)C(=O)N2CCC[C@H]2C(=O)N[C@@H](CO)C(=O)N[C@@H](CCCCN)C(=O)N1)[C@@H](C)O)C(=O)N[C@@H](CCCNC(=N)N)C(=O)N[C@@H](CCCCN)C(=O)N[C@@H](CC(N)=O)C(=O)N[C@@H](CC(=O)O)C(=O)N[C@@H](CCCNC(=N)N)C(=O)N[C@@H](CCCCN)C(=O)N[C@@H](CCCCN)C(=O)N[C@@H](CCCNC(=N)N)C(=O)O` [Sample 24] (H-CLAPSPSKCKKRTLRKNDRKKR-OH; disulfide 1-9; N-terminus and C-terminus assumed), the “antitumor activity (tumor cell proliferation-inhibiting activity), in words” value in experiment [1] and in experiment [2] was “high antitumor activity” each time. In addition, the “A450(-A620) After 24 hers” value turned out to be 1.5820 in experiment [1]; 0.3492 in experiment [2] (N1E-115, peptide 50 μM); 0.3198 in experiment [2] (N1E-115, peptide 100 μM).
On to `CC(C)C[C@H](NC(=O)[C@@H](NC(=O)[C@H](CCCNC(=N)N)NC(=O)[C@H](CCCCN)NC(=O)[C@H](CCCCN)NC(=O)[C@@H]1CSSC[C@H](N)C(=O)NCC(=O)N[C@@H](Cc2c[nH]cn2)C(=O)N[C@@H](CCCNC(=N)N)C(=O)N2CCC[C@H]2C(=O)N[C@@H](Cc2ccc(O)cc2)C(=O)N[C@@H](CCC(N)=O)C(=O)N[C@@H](Cc2ccc(O)cc2)C(=O)N1)[C@@H](C)O)C(=O)N[C@@H](CCCNC(=N)N)C(=O)N[C@@H](CCCCN)C(=O)N[C@@H](CC(N)=O)C(=O)N[C@@H](CC(=O)O)C(=O)N[C@@H](CCCNC(=N)N)C(=O)N[C@@H](CCCCN)C(=O)N[C@@H](CCCCN)C(=O)N[C@@H](CCCNC(=N)N)C(=O)O` [Sample 26] (H-CGHRPYQYCKKRTLRKNDRKKR-OH; disulfide 1-9; N-terminus and C-terminus assumed), for which, in experiment [2], the “antitumor activity (tumor cell proliferation-inhibiting activity), in words” value is “high antitumor activity”. For the same molecule, the “A450(-A620) After 24 hers” value in experiment [2] (N1E-115, peptide 50 μM) is on record as 0.4550; in experiment [2] (N1E-115, peptide 100 μM), 0.3643.
Take `CC[C@H](C)[C@@H]1NC(=O)[C@H](CCC(=O)O)NC(=O)[C@@H](N)CSSC[C@@H](C(=O)N[C@@H](CCCCN)C(=O)N[C@@H](CCCCN)C(=O)N[C@@H](CCCNC(=N)N)C(=O)N[C@H](C(=O)N[C@@H](CC(C)C)C(=O)N[C@@H](CCCNC(=N)N)C(=O)N[C@@H](CCCCN)C(=O)N[C@@H](CC(N)=O)C(=O)N[C@@H](CC(=O)O)C(=O)N[C@@H](CCCNC(=N)N)C(=O)N[C@@H](CCCCN)C(=O)N[C@@H](CCCCN)C(=O)N[C@@H](CCCNC(=N)N)C(=O)O)[C@@H](C)O)NC(=O)[C@H]([C@@H](C)O)NC(=O)[C@H](CCCNC(=N)N)NC(=O)[C@H](CCCCN)NC(=O)[C@H](C)NC(=O)[C@H](CO)NC1=O` [Sample 29] (H-CEISAKRTCKKRTLRKNDRKKR-OH; disulfide 1-9; N-terminus and C-terminus assumed): in experiment [1], the “antitumor activity (tumor cell proliferation-inhibiting activity), in words” value is “high antitumor activity” and the “A450(-A620) After 24 hers” value was found to be 1.6577.
On to EFEYFHPATFRL [Sample 20, EFEYFHPATFRL], for which the “A450(-A620) After 24 hers” value in experiment [1] turned out to be 1.8115; in experiment [2] (N1E-115, peptide 50 μM), 0.5772; in experiment [2] (N1E-115, peptide 100 μM) it was 0.6481.
Regarding EFEYFHPATFRLKKRTLRKNDRKKR [Sample 42], the “antitumor activity (tumor cell proliferation-inhibiting activity), in words” value in experiment [2] was “high antitumor activity”. The “A450(-A620) After 24 hers” value is 0.5145 in experiment [2] (N1E-115, peptide 50 μM) and 0.4114 in experiment [2] (N1E-115, peptide 100 μM).
Consider GAVTYSRISGQY [Sample 22, GAVTYSRISGQY], for which the “A450(-A620) After 24 hers” value in experiment [1] came out at 1.9711.
With GPHHYWYHLRLPKKRTLRKNDRKKR [Sample 38], in experiment [2], the “antitumor activity (tumor cell proliferation-inhibiting activity), in words” value was “high antitumor activity”. Besides, the “A450(-A620) After 24 hers” value in experiment [2] (N1E-115, peptide 50 μM) was found to be 0.4605; in experiment [2] (N1E-115, peptide 100 μM), 0.3592.
Consider GPHLGMNQRRRPKKRTLRKNDRKKR [Sample 43], for which, in experiment [2], the “antitumor activity (tumor cell proliferation-inhibiting activity), in words” value was “high antitumor activity”. Further, the “A450(-A620) After 24 hers” value came to 0.4784 in experiment [2] (N1E-115, peptide 50 μM) and 0.4110 in experiment [2] (N1E-115, peptide 100 μM).
For the molecule NMTTYPMHNNTV [Sample 18, NMTTYPMHNNTV], the “A450(-A620) After 24 hers” value in experiment [1] is on record as 1.6767; in experiment [2] (N1E-115, peptide 50 μM), 0.6054; in experiment [2] (N1E-115, peptide 100 μM), 0.5999.
Regarding NMTTYPMHNNTVKKRTLRKNDRKKR [Sample 40], in experiment [1], the “antitumor activity (tumor cell proliferation-inhibiting activity), in words” value was “high antitumor activity” and the “A450(-A620) After 24 hers” value came out at 1.5890.
Regarding QSPVNHHYHYHI [Sample 17, QSPVNHHYHYHI], the “A450(-A620) After 24 hers” value is recorded as 1.9428 in experiment [1]; 0.6019 in experiment [2] (N1E-115, peptide 50 μM); 0.5818 in experiment [2] (N1E-115, peptide 100 μM).
SLLPHSNHAKHY [Sample 19, SLLPHSNHAKHY]: in experiment [1], the “A450(-A620) After 24 hers” value was 1.8271.
Consider TPSLPPTMFRLT [Sample 15, TPSLPPTMFRLT], for which the “A450(-A620) After 24 hers” value in experiment [1] is 1.6022.
